Measured values as given in patent publication US7739055B2, “Methods and systems for generating and evaluating peptides” (priority 2005, dated 2010).
Values after ≈ are worked out from the molar mass of the structure shown. Where two headings read alike, the source gives them in different places. Where a SMILES comes first, the peptide text is derived from it.

Columns and labels:
[1] = system: Sterne strain of Bacillus anthracis
[2] = system: Smith Diffuse strain of Staphylococcus aureus
[3] = first concentration that prohibits growth by OD at 24 hours, Table 1

Compound | MIC E. coli (Escherichia coli; [3]) | MIC B. cereus (B. cereus; [3]) | further results
CC[C@H](C)[C@H](NC(=O)[C@H](CCCCN)NC(=O)[C@H](CCCCN)NC(=O)[C@H](Cc1ccccc1)NC(=O)[C@H](CC(C)C)NC(=O)[C@H](CCCCN)NC(=O)[C@H](Cc1c[nH]c2ccccc12)NC(=O)[C@@H](N)CCCCN)C(=O)NCC(=O)N[C@@H](C)C(=O)N[C@H](C(=O)N[C@@H](CC(C)C)C(=O)N[C@@H](CCCCN)C(=O)N[C@H](C(=O)N[C@@H](CC(C)C)C(N)=O)C(C)C)C(C)C [Cec Mel Hyb, KWKLFKKIGAVLKVL-NH2] (H-KWKLFKKIGAVLKVL-NH2) | – | – | MIC B. cereus (B. cereus; 24 h): 8 µg/mL (≈ 4.52 µM); MIC B. anthracis [1]: 16 µg/mL (≈ 9.04 µM); MIC S. aureus ([2]; Smith Diffuse strain of): 4 µg/mL (≈ 2.26 µM)
CC(C)C[C@H](NC(=O)[C@H](CC(C)C)NC(=O)[C@H](CO)NC(=O)[C@H](CCCCN)NC(=O)[C@H](CC(C)C)NC(=O)[C@@H]1CCCN1C(=O)[C@H](C)NC(=O)[C@H](Cc1ccccc1)NC(=O)[C@@H]1CCCN1C(=O)[C@H](CC(C)C)NC(=O)[C@@H](NC(=O)[C@H](CCCCN)NC(=O)[C@H](CCCCN)NC(=O)[C@@H](NC(=O)[C@H](CO)NC(=O)[C@@H](N)C(C)C)C(C)C)C(C)C)C(=O)N[C@@H](CO)C(=O)N[C@@H](Cc1ccccc1)C(=O)N[C@@H](C)C(=O)N[C@@H](Cc1ccccc1)C(=O)O [Shuffled 63] (H-VSVKKVLPFAPLKSLLSFAF-OH; N-terminus and C-terminus assumed) | – | – | MIC E. coli (Escherichia coli; 24 h): 256 µg/mL (≈ 117 µM); MIC B. cereus (B. cereus; 24 h): 256 µg/mL (≈ 117 µM); MIC S. aureus ([2]; Smith Diffuse strain, Table 1): + (MIC greater than 256 ug/mL)
FVGSLASKVVPSVFGAIKTK [Peptide 82] | + (MIC greater than 256 ug/mL) | + (MIC greater than 256 ug/mL) | –
GAVFGVASKVVPSVFSAIKK [Peptide 84] | + (MIC greater than 256 ug/mL) | + (MIC greater than 256 ug/mL) | –
GLKKDALQSIVKKAQLAAMG [Shuffled 9] | + (MIC greater than 256 ug/mL) | + (MIC greater than 256 ug/mL) | –
GVSSPIVAVKFKGAVASLIK [Shuffled 6] | + (MIC greater than 256 ug/mL) | + (MIC greater than 256 ug/mL) | –
GVVGKLASKVVPSVFGSFTK [Peptide 34] | + (MIC greater than 256 ug/mL) | + (MIC greater than 256 ug/mL) | –
HTGRSGPATGHSGHSSTHGS [Peptide 86] | + (MIC greater than 256 ug/mL) | + (MIC greater than 256 ug/mL) | –
IASAVPVCVKGKISKSYISV [Shuffled 44] | + (MIC greater than 256 ug/mL) | + (MIC greater than 256 ug/mL) | –
KFDPLEGAPMARGIVLEKVG [Peptide 74] | + (MIC greater than 256 ug/mL) | + (MIC greater than 256 ug/mL) | –
KGRGKQGGKVRAKAKTRSS [Parasin] | + (MIC greater than 256 ug/mL) | + (MIC greater than 256 ug/mL) | –
KIVKVITVKSISPASLVPVF [Shuffled 83] | ++ (MIC greater than 128 ug/mL, not sufficiently soluble to test as 256 ug/mL) | ++ (MIC greater than 128 ug/mL, not sufficiently soluble to test as 256 ug/mL) | –
KSPFVLVVSSRVAAVIKSLP [Shuffled 25] | + (MIC greater than 256 ug/mL) | + (MIC greater than 256 ug/mL) | –
KTVPVVLKASIKVSSAGFGF [Shuffled 82] | + (MIC greater than 256 ug/mL) | + (MIC greater than 256 ug/mL) | –
KVGKGSYPCSFVKVVAKVSV [Shuffled 85] | + (MIC greater than 256 ug/mL) | + (MIC greater than 256 ug/mL) | –
KVYVVKIAVPCFPKSARSVS [Shuffled 29] | + (MIC greater than 256 ug/mL) | + (MIC greater than 256 ug/mL) | –
KYGPALVIAVKKSCSLTFRA [Shuffled 23] | + (MIC greater than 256 ug/mL) | + (MIC greater than 256 ug/mL) | –
LGVVGSLASKVVPAVISKVK [Peptide 57] | + (MIC greater than 256 ug/mL) | + (MIC greater than 256 ug/mL) | –
LPAVFKLASKVVPSVFGLVK [Peptide 42] | + (MIC greater than 256 ug/mL) | + (MIC greater than 256 ug/mL) | –
LPVLFSSAIAKVGIKLGAKV [Shuffled 96] | + (MIC greater than 256 ug/mL) | + (MIC greater than 256 ug/mL) | –
LPVVFKIASKVVPSVISKIT [Peptide 83] | + (MIC greater than 256 ug/mL) | + (MIC greater than 256 ug/mL) | –
LSAVGKIASKVVPSVIGAFK [Peptide 6] | + (MIC greater than 256 ug/mL) | + (MIC greater than 256 ug/mL) | –
LYSPTCVKAAVSRFIGKVSA [Shuffled 15] | + (MIC greater than 256 ug/mL) | + (MIC greater than 256 ug/mL) | –
MKSIAKFIAKTVAKQGAKQG [Peptide 39] | + (MIC greater than 256 ug/mL) | – | MIC B. cereus (B. cereus): + (key: +: MIC greater than 256 ug/mL; ++: MIC greater than 128 ug/mL, not sufficiently soluble to test as 256 ug/mL)
MVVFSVPKFKSTVAKLLSSA [Shuffled 1] | + (MIC greater than 256 ug/mL) | + (MIC greater than 256 ug/mL) | –
PKVVGLSIVVVKAKVSSALG [Shuffled 57] | + (MIC greater than 256 ug/mL) | + (MIC greater than 256 ug/mL) | –
PSLLYKAKAVFCKPSAVAVF [Shuffled 62] | ++ (MIC greater than 128 ug/mL, not sufficiently soluble to test as 256 ug/mL) | ++ (MIC greater than 128 ug/mL, not sufficiently soluble to test as 256 ug/mL) | –

Compound | MIC E. coli (Escherichia coli; [3]) | MIC B. cereus (B. cereus; [3]) | further results
PVIGKLASKVVPSVFSMIKR [Peptide 7] | + (MIC greater than 256 ug/mL) | + (MIC greater than 256 ug/mL) | –
PVVFSVASKVVPSLISALKR [Peptide 25] | + (MIC greater than 256 ug/mL) | – | MIC B. cereus (B. cereus): + (key: +: MIC greater than 256 ug/mL; ++: MIC greater than 128 ug/mL, not sufficiently soluble to test as 256 ug/mL)
PVVGRVASKVFPAVIGLVKK [Peptide 45] | + (MIC greater than 256 ug/mL) | + (MIC greater than 256 ug/mL) | –
PYSLKNGENWLLSEEIIRYP [Peptide 50] | + (MIC greater than 256 ug/mL) | + (MIC greater than 256 ug/mL) | –
RKRKSDVDFEAEFELFEDDD [Peptide 19] | + (MIC greater than 256 ug/mL) | + (MIC greater than 256 ug/mL) | –
SALGRLASKVVPAVIGKVTT [Peptide 56] | + (MIC greater than 256 ug/mL) | + (MIC greater than 256 ug/mL) | –
SALGRVASKVFPAVYCSITK [Peptide 15] | + (MIC greater than 256 ug/mL) | + (MIC greater than 256 ug/mL) | –
SAVGKLASKVFPAVFSMVTK [Peptide 31] | + (MIC greater than 256 ug/mL) | + (MIC greater than 256 ug/mL) | –
SAVGSVASKVVPSLISKVTK [Peptide 36] | + (MIC greater than 256 ug/mL) | + (MIC greater than 256 ug/mL) | –
SKFPLAGIFSVPGVKRVVVI [Shuffled 75] | + (MIC greater than 256 ug/mL) | + (MIC greater than 256 ug/mL) | –
SRVPLKSPVKIVGSKVMIFA [Shuffled 7] | + (MIC greater than 256 ug/mL) | + (MIC greater than 256 ug/mL) | –
SSSIPIKMVLVRALVFVKSG [Shuffled 55] | + (MIC greater than 256 ug/mL) | + (MIC greater than 256 ug/mL) | –
STVKVASKLAVVVSPISKGS [Shuffled 36] | + (MIC greater than 256 ug/mL) | + (MIC greater than 256 ug/mL) | –
SVIGKIASKVVPSVYCAISK [Peptide 44] | + (MIC greater than 256 ug/mL) | + (MIC greater than 256 ug/mL) | –
SVKPVGSSVVKGTALVKFFG [Shuffled 34] | + (MIC greater than 256 ug/mL) | + (MIC greater than 256 ug/mL) | –
SVKVAKSVIPSAVFAGGKVF [Shuffled 84] | + (MIC greater than 256 ug/mL) | + (MIC greater than 256 ug/mL) | –
SVVFGVASKVVPSVIGKVKT [Peptide 69] | + (MIC greater than 256 ug/mL) | + (MIC greater than 256 ug/mL) | –
TAKVVVFVSFSYVVPKKRAC [Shuffled 2] | + (MIC greater than 256 ug/mL) | + (MIC greater than 256 ug/mL) | –
TLVGVVAKLVATKIGSSPRA [Shuffled 56] | + (MIC greater than 256 ug/mL) | + (MIC greater than 256 ug/mL) | –
VDKGSYLPRPTPPRPIYNRN [Pyrrhocoricin] | ++ (MIC greater than 128 ug/mL, not sufficiently soluble to test as 256 ug/mL) | – | MIC B. cereus (B. cereus): ++ (key: +: MIC greater than 256 ug/mL; ++: MIC greater than 128 ug/mL, not sufficiently soluble to test as 256 ug/mL)
VFSVKGGKPSVVIKVVVAST [Shuffled 69] | + (MIC greater than 256 ug/mL) | + (MIC greater than 256 ug/mL) | –
VIAFAKTKEAKAKLKGQAKG [Shuffled 77] | + (MIC greater than 256 ug/mL) | + (MIC greater than 256 ug/mL) | –
VKDLAKFIAKTVAKQGGCYL [Peptide 33] | ++ (MIC greater than 128 ug/mL, not sufficiently soluble to test as 256 ug/mL) | ++ (MIC greater than 128 ug/mL, not sufficiently soluble to test as 256 ug/mL) | –
VKRAGKGVAVVPSPLFKIVV [Shuffled 45] | + (MIC greater than 256 ug/mL) | + (MIC greater than 256 ug/mL) | –
VKTKCSVPAVVYILVKTFKS [Shuffled 88] | + (MIC greater than 256 ug/mL) | + (MIC greater than 256 ug/mL) | –
VVAKKFFVLVKGLAPVLSPS [Shuffled 42] | + (MIC greater than 256 ug/mL) | + (MIC greater than 256 ug/mL) | –
VVGRVASKVVPSLIGLFTTK [Peptide 65] | + (MIC greater than 256 ug/mL) | + (MIC greater than 256 ug/mL) | –
